Laboratory results: patent publication US4503076A, “Vasodilator compound and pharmaceutical compositions therefrom” (Ausonia Farmaceutic s.r.l., priority 1981, dated 1985)
Where two headings read alike, the source gives them in different places.

Key:
Solubility = assay type: physicochemical
[1] = tested on: isolated small intestine (ileum) of guinea pigs; assay: Spasmolytic activity in vitro on the isolated small intestine (ileum) of guinea pigs, barium chloride as agonist; conditions: 10^-6 g/cc; for % inhibition: incubation 1 minute, BaCl2 2.10^-6 g/cc
Method: The tests are carried out in vitro utilizing the isolated small intestine of guinea pigs. As agonist, there is used barium chloride in the dose of 2.10^-6 g/cc. The substance AF 544 and papaverine, which is a substance having well-known spasmolytic activity, are tested in the same concentration of 10^-6 g/cc.

[2] = Acute toxicity (DL50) in mice; conditions: mouse, in vivo
Description: The DL50 has been determined in mice by the oral as well as intraperitoneal route.

anaesthesized cats = assay: Effect on the circulation and on breathing of anaesthetized cats; assay type: in vivo
Method: For this test, six cats of both sexes are used. The animals had been brought to a state of anaesthesia by means of urethane. The substance AF 544 is administered by the endovenous route in the dose of 0.1-1 mg/kg. The following parameters have been studied: average arterial pressure, amplitude and respiratory frequency, effect on pressure responses to various agonists, (acetylcholine, adrenaline, occlusion of the carotid artery, and vagal stimulation).

renin = assay: Hematic renin in rats with tied abdominal aorta; assay type: in vivo; conditions: 20 and 40 mg/kg oral, after 30 minutes
Method: (§1) In a second experiment, the substance AF 544 has been administered to rats which have been treated to cause an increase in blood pressure, specifically by tying the abdominal aorta. The administration has been carried out by the oral route in the dose of 20 and 40 mg/kg respectively. Measurements of diastolic pressure, systolic pressure and average pressure are made after 1, 15, and 30 minutes. After 30 minutes, for each group, determinations are made of the hematic renin and the hematic angiotensin. The dose of 20 mg/kg is found to reduce the diastolic pressure of 10-15% while the systolic pressure and the average pressure remain unchanged. On the other hand, the dose of 40 mg/kg is found to be effective on all three parameters, causing an average reduction of about 25%.

[3] = tested on: rats having genetically high blood pressure; assay: Antihypertensive activity in rats having genetically high blood pressure; assay type: in vivo; conditions: 25 mg/kg orally
Method: There are utilized for this test rats having genetically high blood pressure. The rats are treated for three days with AF 544 in the dose of 25 mg/kg orally. After each treatment and specifically after 1, 4, 8 and 24 hours respectively, the systolic pressure of the animals is measured.

angiotensin = assay: Hematic angiotensin in rats with tied abdominal aorta; assay type: in vivo; conditions: 20 and 40 mg/kg oral, after 30 minutes
Method: as §1

[4] = tested on: rats having normal blood pressure; assay: Hypotensive activity in rats having normal blood pressure; assay type: in vivo; conditions: for Time of maximum hypotensive effect: i.p., rats with normal blood pressure
Method: The product has been administered by the intraperitoneal route to rats having normal blood pressure in the dose of 10 and 25 mg/kg. The systolic pressure of the animals has been measured 1, 4, and 24 hours respectively after the treatment using hydralazine in the dose of 1 mg/kg intraperitoneally for comparison. […] When the substance is administered in the dose of 25 mg/kg, the decrease in the systolic pressure is 2.5 times the decrease caused by hydralazine administered in the dose of 1 mg/kg.

[5] = tested on: lower limb of rats (vascular zone); assay: Vasodilator activity, perfusion of the lower limb of rats (Foster et al.); conditions: for inhibition at 50 µg/mL: read-out: Decrease in pressure, %
Description: (Foster et al., J.Pharmacol.Exp.Ther. 89,256,1947)
This study has been carried out in rats by perfusion of the lower limb while determining the variation of the resistance offered by the vascular zone after the perfusion by means of a suitable pressure transducer.
The vaso-constricting agent used is a solution containing a high content of potassium, together with papaverine, the latter being used for comparison purposes.

[6] = tested on: rats treated to cause an increase in blood pressure by tying the abdominal aorta; assay: Antihypertensive activity in rats with tied abdominal aorta, blood pressure; assay type: in vivo
Method: as §1

[7] = perfused rat lower limb, dose 5.10^-5 g/cc, high-potassium vasoconstriction

CC(=N)Nc1c(Cl)cccc1Cl
Solubility in water (Solubility; in water): soluble in water

CC(=N)Nc1c(Cl)cccc1Cl [AF 544, N-(2,6-dichlorophenyl)acetamidine]
Spasmolytic activity (in words) ([1]; efficacy compared with papaverine in the same concentration): high spasmolytic activity with an efficacy which is statistically analogous to that of papaverine in the same concentration | % inhibition [1]: 49.8 ± 7.44% | LD50 ([2]; ip): 170 mg/kg | LD50 ([2]; po, orally): 420 mg/kg | Solubility in common organic solvents (Solubility; by heating, common organic solvents): soluble by heating in common organic solvents | Effect in % on pressure response to acetylcholine (anaesthesized cats; 0.1 mg/kg i.v.): +5.0% | Effect in % on pressure response to adrenaline (anaesthesized cats; 0.1 mg/kg i.v.): -25.6% | Effect in % on pressure response to carotid occlusion (anaesthesized cats; 0.1 mg/kg i.v.): +3.5% | Effect in % on pressure response to vagal stimulation (anaesthesized cats; 0.1 mg/kg i.v.): +11.5% | Effect on arterial pressure, % (anaesthesized cats; 0.1 mg/kg i.v.): -13.9% | Effect on arterial pressure, mm Hg ± e.s (anaesthesized cats; 0.1 mg/kg i.v.): -12.5 mm Hg | Respiration, amplitude % (anaesthesized cats; 0.1 mg/kg i.v.): +50.9% | Respiration, frequency % (anaesthesized cats; 0.1 mg/kg i.v.): +31.4% | Transitory hypotension (anaesthesized cats; 0.1 mg/kg intravenously): 13.9% | Effect in % on pressure response to acetylcholine (anaesthesized cats; 1 mg/kg i.v.): +4.5% | Effect in % on pressure response to adrenaline (anaesthesized cats; 1 mg/kg i.v.): +4.0% | Effect in % on pressure response to carotid occlusion (anaesthesized cats; 1 mg/kg i.v.): +2.5% | Effect in % on pressure response to vagal stimulation (anaesthesized cats; 1 mg/kg i.v.): +20.4% | Effect on arterial pressure, % (anaesthesized cats; 1 mg/kg i.v.): -46.0% | Effect on arterial pressure, mm Hg ± e.s (anaesthesized cats; 1 mg/kg i.v.): -36.7 mm Hg | Respiration, amplitude % (anaesthesized cats; 1 mg/kg i.v.): +16.1% | Respiration, frequency % (anaesthesized cats; 1 mg/kg i.v.): -8.5% | Transitory hypotension (anaesthesized cats; 1 mg/kg intravenously): 46.0% | Variations of the other parameters observed (in words) (anaesthesized cats; 0.1-1 mg/kg i.v., respiration, responses to agonists): small and statistically they are not significant | Activity of renin (renin): increases in proportion to the dose of AF 544 | Time of maximum decrease of pressure [3]: between the fourth and eighth hour | Percentage variation of (systolic) pressure with respect to the basal values of the first day ([3]; day 1, 1 hour): -5% | Percentage variation of (systolic) pressure with respect to the basal values of the first day ([3]; day 1, 4 hours): -20% | Percentage variation of (systolic) pressure with respect to the basal values of the first day ([3]; day 1, 8 hours): -18% | Percentage variation of (systolic) pressure with respect to the basal values of the first day ([3]; day 1, 24 hours): -19% | Percentage variation of (systolic) pressure with respect to the basal values of the first day ([3]; day 2, 1 hour): -26% | Percentage variation of (systolic) pressure with respect to the basal values of the first day ([3]; day 2, 4 hours): -20% | Percentage variation of (systolic) pressure with respect to the basal values of the first day ([3]; day 2, 8 hours): -27% | Percentage variation of (systolic) pressure with respect to the basal values of the first day ([3]; day 2, 24 hours): -28% | Percentage variation of (systolic) pressure with respect to the basal values of the first day ([3]; day 3, 1 hour): -22% | Percentage variation of (systolic) pressure with respect to the basal values of the first day ([3]; day 3, 4 hours): -11% | Percentage variation of (systolic) pressure with respect to the basal values of the first day ([3]; day 3, 8 hours): -15% | Percentage variation of (systolic) pressure with respect to the basal values of the first day ([3]; day 3, 24 hours): -12% | Decrease of pressure at the twenty-fourth hour (in words) ([3]; relative to the maximum at 4-8 hours): remaining about the same during the twenty-fourth hour | Quantity of angiotensin (angiotensin): an increase in the quantity of angiotensin occurs, which is inversely proportional to the dose of AF 544 | Percentage variation of systolic pressure with respect to the basal values ([4]; 10 mg/kg i.p., 1 hour): -1.5 ± 1.8% | Percentage variation of systolic pressure with respect to the basal values ([4]; 10 mg/kg i.p., 4 hours): -13.1 ± 6.8% | Percentage variation of systolic pressure with respect to the basal values ([4]; 25 mg/kg i.p., 1 hour): -6.6 ± 13.4% | Percentage variation of systolic pressure with respect to the basal values ([4]; 25 mg/kg i.p., 4 hours): -46.2 ± 3.4% | Percentage variation of systolic pressure with respect to the basal values ([4]; 25 mg/kg i.p., 24 hours): -2.2 ± 2.8% | Dose dependence of hypotensive activity ([4]; 10 and 25 mg/kg i.p.): depends on the dose | Decrease in systolic pressure relative to the decrease caused by hydralazine ([4]; AF 544 25 mg/kg i.p. vs hydralazine 1 mg/kg i.p.): 2.5 times | Time of maximum hypotensive effect [4]: reaches the maximum effect during the fourth hour | Vasodilator activity (in words) ([5]; compared with papaverine at equal dose): substantial vasodilator activity, which is only slightly inferior to that of papaverine at equal dose | Decrease in pressure, mm Hg ± e.s [5, 7]: 60 ± 3.2 mm Hg | inhibition at 50 µg/mL [5, 7]: 27.5% | Effect on average pressure ([6]; 20 mg/kg oral): unchanged | Effect on systolic pressure ([6]; 20 mg/kg oral): unchanged | Reduction of diastolic pressure ([6]; 20 mg/kg oral): 10-15% | Average reduction of all three parameters (diastolic, systolic and average pressure) ([6]; 40 mg/kg oral): about 25%

NNc1nncc2ccccc12 [HYDRALAZINE, hydralazine, reference compound]
Percentage variation of systolic pressure with respect to the basal values ([4]; 1 mg/kg i.p., 1 hour): +21.0 ± 4.9% | Percentage variation of systolic pressure with respect to the basal values ([4]; 1 mg/kg i.p., 4 hours): -18.0 ± 3.1% | Percentage variation of systolic pressure with respect to the basal values ([4]; 1 mg/kg i.p., 24 hours): -7.5 ± 7.8% | Time of maximum hypotensive effect [4]: reaches the maximum even during the first hour

COc1ccc(Cc2nccc3cc(OC)c(OC)cc23)cc1OC [PAPAVERINE, papaverine, reference compound]
% inhibition [1]: 73.7 ± 8.09% | inhibition at 50 µg/mL ([5]; Rattus norvegicus): 39.3% | Decrease in pressure, mm Hg ± e.s [5, 7]: 82 ± 13.6 mm Hg
